Data as given in US20230355625A1, “METHODS OF TREATMENT” (INTRA-CELLULAR THERAPIES, INC., priority 2019, published 2023).

Assays:
[1] = tested on: healthy human individuals; assay: BOLD-fMRI during the extinction phase of a fear conditioning task; assay type: in vivo; conditions: single oral doses of 1 mg or 10 mg vs placebo; FIG. 1
Procedure: A randomized, double-blind, placebo-controlled, within-subjects study was carried out with healthy human individuals to determine whether the PDE1 inhibitors according to the present disclosure induce changes in blood oxygen level dependent functional magnetic resonance imaging (BOLD-fMRI) signals in the dorsal anterior insula (dAI) during the extinction phase of a fear conditioning task. To test these effects, Compound 1 was administered to healthy human patients. Compound 1 (ITI-214) is shown below:
The insula is a small brain region that is essential for the mind-body connection, where body sensations are translated into emotion. Anterior insula reactivity has been associated with anticipating significant events, and increased anterior insula activity has been associated with anxiety. Conditioning, including fear conditioning and extinction, is a brain activity during learning. […]
Patients were administered single oral doses of placebo, or doses of Compound 1 at 1 mg or 10 mg. Brain activity was then measured during BOLD-fMRI scanning at 3 Tesla. […] Region-of-interest (ROI) analyses for the dAI, IFG, and other prespecified regions were computed using linear mixed models in R. The brain's response is measured in each subject by fMRI scans, which is summarized in FIG. 1.

[2] = tested on: healthy human individuals; assay: BOLD-fMRI during a stop signal task; assay type: in vivo
Procedure: The Stop Signal task is a way to measure behavioral and neural responses to inhibitory processing.
Patients were again administered single oral doses of placebo, Compound 1 at 1 mg or 10 mg. Brain activity was then measured during BOLD-fMRI scanning at 3 Tesla. In this study, participants are presented with a visual and/or audio cue and two buttons. The subjects are instructed to press the left button as quickly as possible when an ‘X’ appears on a screen and the right button when an ‘O’ appears. Participants also are instructed not to press either button when they hear a tone, which constitute the Stop trials. There are two different kinds of Stop trials presented during the task, namely easy and hard trials. Easy trials consist of the tone cue being presented simulataneously with the visual ‘X’ or ‘O’ making it easier to suppress a response. Hard trials consist of the tone being presented after a brief delay, making it harder to process the tone and suppress a response.
This consistency provides confidence in the findings.

[3] = tested on: preclinical models; assay: preclinical models of cognitive performance; assay type: in vivo
[4] = tested on: animal models; conditions: cited from earlier work
[5] = tested on: healthy humans; conditions: cited from earlier work; for fear extinction learning: humans
[6] = in vivo; cited from earlier work

Row | SMILES | insula activity (dorsal anterior insula BOLD-fMRI signal) during fear extinction [1] | activity in the dorsolateral prefrontal cortex during stop signal task ([2]; FIG. 3) | activity in the dorsal anterior cingulate cortex during stop signal task ([2]; FIG. 4) | activity in the anterior insula during stop signal task ([2]; FIG. 5) | activation in the frontal gyrus ([2]; human, 1 mg where stated) | activation in the inferior frontal gyrus during correctly inhibited Stop trials, easy trials (correcteasy) ([2]; single oral dose 1 mg, FIG. 2) | activation in the inferior frontal gyrus during correctly inhibited Stop trials, hard trials (correcthard) ([2]; single oral dose 1 mg, FIG. 2) | cognitive performance [3] | psychomotor hyperactivity [3] | extinction of contextual fear (cognitive function) [4] | effect on the bilateral anterior insula during a fear extinction task ([5]; healthy humans) | fear extinction learning [5] | activation in the frontal gyrus during a stop signal task [6] | inhibitory performance during a stop signal task [6]
1 | CN1C(=O)c2c(nn(Cc3ccc(-c4cccc(F)n4)cc3)c2Nc2ccccc2)N2C1=N[C@@H]1CCC[C@@H]12 [Compound 1] | slightly attenuated | increased activity | increased activity | increased activity | increased activation | significantly increased activation | significantly increased activation | improved cognitive performance | without psychomotor hyperactivity |  |  |  |  | 
2 | COC(=O)C(c1ccccc1)C1CCCCN1 (stereo not drawn) [methylphenidate] |  |  |  |  |  |  |  |  |  | enhanced extinction of contextual fear | attenuating effect | enhancement of fear extinction learning | increase activation | improve inhibitory performance
3 | NC(=O)C[S+]([O-])C(c1ccccc1)c1ccccc1 (stereo not drawn) [modafinil] |  |  |  |  |  |  |  |  |  | enhanced extinction of contextual fear |  | enhancement of fear extinction learning | increase activation | improve inhibitory performance
